MIC and CC50 data for four compounds are collected here from ChEMBL document CHEMBL4513138, “CO-ADD screening of University of Mosul (Iraq) compounds”.

In one assay the test system is Staphylococcus aureus. The experiment in a line: microbe, parasite or virus in culture. As to conditions: ATCC 43300, 18 h, ASSAY_TEST Inhibition of Bacterial Growth, detection method Absorption (OD600), MEDIA CAMHB, plate type 384well, NBS, CORNING #3640.
Another assay has as its system Escherichia coli. The assay can be described thus: microbe, parasite or virus in culture. Conditions: ATCC 25922, 18 h, ASSAY_TEST Inhibition of Bacterial Growth, detection method Absorption (OD600), MEDIA CAMHB, plate type 384well, NBS, CORNING #3640.
A further assay concerns Acinetobacter baumannii. The experiment in a line: microbe, parasite or virus in culture. Conditions: ATCC 19606, 18 h, ASSAY_TEST Inhibition of Bacterial Growth, detection method Absorption (OD600), MEDIA CAMHB, plate type 384well, NBS, CORNING #3640.
A further assay relates to Candida albicans. The assay can be described thus: microbe, parasite or virus in culture. Conditions: ATCC 90028, ASSAY_TEST Inhibition of Fungal Growth, detection method Absorption (OD530), plate type 384well, NBS, CORNING #3640.
Another assay relates to Pseudomonas aeruginosa. The experiment in a line: microbe, parasite or virus in culture. As to conditions: ATCC 27853, 18 h, ASSAY_TEST Inhibition of Bacterial Growth, detection method Absorption (OD600), MEDIA CAMHB, plate type 384well, NBS, CORNING #3640.
In a further assay the test system is HEK293. The experiment in a line: cells. It is filed as functional. Conditions: Homo sapiens, ATCC CRL1573, HEK293; ASSAY_TEST Inhibition of Cell Viability; detection method Resazurin; Fluorescence (ex560/em590); MEDIA DMEM with 10% FBS; plate type 384well; TC; CORNING #3712; time 18 hr.
The subject of a further assay is Klebsiella pneumoniae. The experiment in a line: microbe, parasite or virus in culture. As to conditions: ATCC 700603, 18 h, ASSAY_TEST Inhibition of Bacterial Growth, detection method Absorption (OD600), MEDIA CAMHB, plate type 384well, NBS, CORNING #3640.

The structures appear in SMILES notation.

Description for Acinetobacter baumannii: Antibacterial activity against Acinetobacter baumannii ATCC 19606 (CO-ADD:GN_034); MIC in CAMBH media using NBS plates, by OD600
Description for Candida albicans: Antifungal activity against Candida albicans ATCC 90028 (CO-ADD:FG_001); MIC in YNB media using NBS plates, by OD630
Description for Cryptococcus neoformans: Antifungal activity against Cryptococcus neoformans H99 ATCC 208821 (CO-ADD:FG_002); MIC in YNB media using NBS plates, by Resazurin OD(600-570)
Description for Escherichia coli: Antibacterial activity against Escherichia coli ATCC 25922 (CO-ADD:GN_001); MIC in CAMBH media using NBS plates, by OD(600)
Description for Klebsiella pneumoniae: Antibacterial activity against Klebsiella pneumoniae MDR ATCC 70063 (CO-ADD:GN_003); MIC in CAMBH media using NBS plates, by OD(600)
Description for Pseudomonas aeruginosa: Antibacterial activity against Pseudomonas aeruginosa ATCC 27853 (CO-ADD:GN_042); MIC in CAMBH media using NBS plates, by OD(600)
Description for Staphylococcus aureus: Antibacterial activity against Staphylococcus aureus MRSA ATCC 43300 (CO-ADD:GP_020); MIC in CAMBH media, using NBS plates, by OD(600)

Consider `CC1COc2c(N3CCN(C)CC3)c(F)cc3c(=O)c(C(=O)Nc4ccc(-c5n[nH]c(=S)o5)cc4)cn1c23.Cl` (configuration not stated), for which the MIC in the assay on Staphylococcus aureus is at most 0.25 µg/mL; in the assay with Escherichia coli, at most 0.25 µg/mL; in the assay on Acinetobacter baumannii, 0.5 µg/mL; against Candida albicans, over 32 µg/mL; against Pseudomonas aeruginosa, at most 0.25 µg/mL; with Cryptococcus neoformans, over 32 µg/mL. This compound gave an MIC in the assay with Klebsiella pneumoniae of at most 0.25 µg/mL. In addition, the half-maximal cytotoxic concentration (CC50) in the assay with HEK293 was over 32 µg/mL.
Regarding `Cl.O=C(Nc1ccc(-c2n[nH]c(=S)o2)cc1)c1cn(C2CC2)c2cc(N3CCNCC3)c(F)cc2c1=O`, the MIC is 32 µg/mL with Staphylococcus aureus; 4 µg/mL in the assay with Escherichia coli; 32 µg/mL against Acinetobacter baumannii; over 32 µg/mL in the assay on Candida albicans; 32 µg/mL against Pseudomonas aeruginosa; over 32 µg/mL with Cryptococcus neoformans. Also, the MIC with Klebsiella pneumoniae came out at 32 µg/mL. Further, it took 17.8 µg/mL to reach half-maximal cytotoxicity in the assay with HEK293 (CC50).
Regarding `CC(O)C1C(=O)N2C(C(=O)Nc3ccc(-c4n[nH]c(=S)o4)cc3)=C(SC3CNC(C(=O)N(C)C)C3)C(C)C12.Cl` (configuration not stated), the MIC against Staphylococcus aureus, in the assay with Escherichia coli, with Acinetobacter baumannii, with Candida albicans, with Pseudomonas aeruginosa and against Cryptococcus neoformans was over 32 µg/mL each time. This compound displayed an MIC against Klebsiella pneumoniae of over 32 µg/mL. For the same compound, the CC50 with HEK293 is over 32 µg/mL.
Regarding `COc1c(N2CC3CCCNC3C2)c(F)cc2c(=O)c(C(=O)Nc3ccc(-c4n[nH]c(=S)o4)cc3)cn(C3CC3)c12.Cl` (configuration not stated), the MIC in the assay on Staphylococcus aureus is at most 0.25 µg/mL; against Escherichia coli, at most 0.25 µg/mL; in the assay on Acinetobacter baumannii, at most 0.25 µg/mL; against Candida albicans it was over 32 µg/mL; with Pseudomonas aeruginosa, 4 µg/mL; in the assay on Cryptococcus neoformans, over 32 µg/mL. In the assay with Klebsiella pneumoniae, this compound returned an MIC of at most 0.25 µg/mL. In the assay on HEK293, this compound returned a CC50 of 6.76 µg/mL.
